This is an account of results in paper PMC5218480 (PLoS ONE, 2017).

The subject of this assay is MV-4-11 cells. Briefly: Gene expression microarray analysis (Affymetrix PrimeView) and GSEA. It is filed as cell-based, human. More on the design: RFU PODN (11730768_x_at) / Fold change /veh PODN (11730768_x_at) / RFU LINC00158 (11744669_a_at) / Fold change /veh LINC00158 (11744669_a_at) / RFU DUSP10 (11751237_a_at) / Fold change /veh DUSP10 (11751237_a_at) / RFU ID3 (11757404_x_at) / Fold change /veh ID3 (11757404_x_at) / RFU PLEKHG5 (11737974_s_at) / Fold change /veh PLEKHG5 (11737974_s_at) / RFU LRRC4B (11730491_at) / Fold change /veh LRRC4B (11730491_at) / RFU GIMAP4 (11747438_a_at) / Fold change /veh GIMAP4 (11747438_a_at) / RFU KRT8 (11758183_x_at) / Fold change /veh KRT8 (11758183_x_at) / RFU CNN1 (11734310_a_at) / Fold change /veh CNN1 (11734310_a_at) / RFU VPS37D (11726825_at) / Fold change /veh VPS37D (11726825_at) / RFU C10orf10 (11716522_x_at) / Fold change /veh C10orf10 (11716522_x_at) / RFU KIR2DL2 /// KIR2DL4 /// KIR2DL5A /// KIR2DL5B /// KIR2DS1 /// KIR2DS2 /// KIR2DS3 /// KIR2DS4 /// KIR3DL3 /// KIR3DL3 /// KIR3DS1 (11738374_at) / Fold change /veh KIR2DL2 /// KIR2DL4 /// KIR2DL5A /// KIR2DL5B /// KIR2DS1 /// KIR2DS2 /// KIR2DS3 /// KIR2DS4 /// KIR3DL3 /// KIR3DL3 /// KIR3DS1 (11738374_at) / RFU C1QL1 (11718748_at) / Fold change /veh C1QL1 (11718748_at) / RFU TMPRSS4 (11747572_a_at) / Fold change /veh TMPRSS4 (11747572_a_at) / RFU HAMP (11756126_x_at) / Fold change /veh HAMP (11756126_x_at) / RFU RNFT2 (11725882_a_at) / Fold change /veh RNFT2 (11725882_a_at) / RFU NR4A2 (11747474_a_at) / Fold change /veh NR4A2 (11747474_a_at) / RFU ABCC12 (11746883_a_at) / Fold change /veh ABCC12 (11746883_a_at) / RFU TMEM136 (11760407_x_at) / Fold change /veh TMEM136 (11760407_x_at) / RFU CLDN22 /// WWC2 (11732394_at) / Fold change /veh CLDN22 /// WWC2 (11732394_at) / RFU HLA-DPB1 (11760878_x_at) / Fold change /veh HLA-DPB1 (11760878_x_at) / RFU SPINT1 (11716480_a_at) / Fold change /veh SPINT1 (11716480_a_at) / RFU GAP43 (11754022_s_at) / Fold change /veh GAP43 (11754022_s_at) / RFU A4GNT (11735810_at) / Fold change /veh A4GNT (11735810_at) / RFU PRB3 (11715151_x_at) / Fold change /veh PRB3 (11715151_x_at) / RFU TUBB4B (11761932_at) / Fold change /veh TUBB4B (11761932_at) / RFU CAPN14 (11732068_a_at) / Fold change /veh CAPN14 (11732068_a_at) / RFU TMCC2 (11721928_a_at) / Fold change /veh TMCC2 (11721928_a_at) / RFU IRGQ (11745062_a_at) / Fold change /veh IRGQ (11745062_a_at) / RFU FAM174B (11720279_a_at) / Fold change /veh FAM174B (11720279_a_at) / RFU TMPRSS4 (11748680_a_at) / Fold change /veh TMPRSS4 (11748680_a_at) / RFU FAM212B (11763350_a_at) / Fold change /veh FAM212B (11763350_a_at) / RFU PLEKHG5 (11743358_a_at) / Fold change /veh PLEKHG5 (11743358_a_at) / RFU ZSCAN30 (11745921_a_at) / Fold change /veh ZSCAN30 (11745921_a_at) / RFU CMKLR1 (11741424_a_at) / Fold change /veh CMKLR1 (11741424_a_at) / RFU LOC101060620 /// MAPK8IP1 (11723275_at) / Fold change /veh LOC101060620 /// MAPK8IP1 (11723275_at) / RFU SPTSSB (11747773_x_at) / Fold change /veh SPTSSB (11747773_x_at) / RFU PRSS12 (11739890_at) / Fold change /veh PRSS12 (11739890_at) / RFU BIN1 (11741810_x_at) / Fold change /veh BIN1 (11741810_x_at) / RFU WNT11 (11732464_a_at) / Fold change /veh WNT11 (11732464_a_at) / RFU C10orf10 (11716521_a_at) / Fold change /veh C10orf10 (11716521_a_at) / RFU C5orf56 (11738089_at) / Fold change /veh C5orf56 (11738089_at) / RFU CYB561 (11721691_x_at) / Fold change /veh CYB561 (11721691_x_at) / RFU ANKRD19P (11752326_a_at) / Fold change /veh ANKRD19P (11752326_a_at) / RFU OR2T12 /// OR2T33 /// OR2T8 (11738714_s_at) / Fold change /veh OR2T12 /// OR2T33 /// OR2T8 (11738714_s_at) / RFU VCAN (11748164_a_at) / Fold change /veh VCAN (11748164_a_at) / RFU JSRP1 (11732532_at) / Fold change /veh JSRP1 (11732532_at) / RFU KRTAP10-11 (11738290_x_at) / Fold change /veh KRTAP10-11 (11738290_x_at) / RFU MYO3A (11730013_a_at) / Fold change /veh MYO3A (11730013_a_at) / RFU EBF3 (11725865_a_at) / Fold change /veh EBF3 (11725865_a_at) / RFU CAMK2N1 (11719241_x_at) / Fold change /veh CAMK2N1 (11719241_x_at) / RFU C5orf56 (11738088_a_at) / Fold change /veh C5orf56 (11738088_a_at) / RFU OLFML3 (11715873_a_at) / Fold change /veh OLFML3 (11715873_a_at) / RFU LOC100653217 /// NTM (11731650_a_at) / Fold change /veh LOC100653217 /// NTM (11731650_a_at) / RFU MAPK11 (11762145_a_at) / Fold change /veh MAPK11 (11762145_a_at) / RFU FIZ1 (11724087_x_at) / Fold change /veh FIZ1 (11724087_x_at) / RFU OASL (11726364_x_at) / Fold change /veh OASL (11726364_x_at) / RFU SOX15 (11748057_x_at) / Fold change /veh SOX15 (11748057_x_at) / RFU CD79A (11719716_a_at) / Fold change /veh CD79A (11719716_a_at) / RFU HIST1H1D (11736915_at) / Fold change /veh HIST1H1D (11736915_at) / RFU CASKIN2 (11723855_a_at) / Fold change /veh CASKIN2 (11723855_a_at) / RFU LOC730098 (11760151_x_at) / Fold change /veh LOC730098 (11760151_x_at) / RFU OR4N2 (11742367_at) / Fold change /veh OR4N2 (11742367_at) / RFU PRRT2 (11749266_a_at) / Fold change /veh PRRT2 (11749266_a_at) / RFU SNX32 (11753110_a_at) / Fold change /veh SNX32 (11753110_a_at) / RFU CDHR5 (11726645_a_at) / Fold change /veh CDHR5 (11726645_a_at) / RFU RCAN1 (11760418_a_at) / Fold change /veh RCAN1 (11760418_a_at) / RFU FAM167A (11723789_a_at) / Fold change /veh FAM167A (11723789_a_at) / RFU FAM26E (11764081_at) / Fold change /veh FAM26E (11764081_at) / RFU ISYNA1 (11749810_s_at) / Fold change /veh ISYNA1 (11749810_s_at) / RFU ACY1 (11761880_at) / Fold change /veh ACY1 (11761880_at) / RFU 11764098_at / Fold change /veh 11764098_at / RFU SAMD14 (11745864_x_at) / Fold change /veh SAMD14 (11745864_x_at) / RFU NPB (11741838_a_at) / Fold change /veh NPB (11741838_a_at) / RFU TMPRSS6 (11731388_a_at) / Fold change /veh TMPRSS6 (11731388_a_at) / RFU KRTAP10-2 (11738614_at) / Fold change /veh KRTAP10-2 (11738614_at) / RFU ARHGAP8 /// PRR5-ARHGAP8 (11727945_x_at) / Fold change /veh ARHGAP8 /// PRR5-ARHGAP8 (11727945_x_at) / RFU KRTAP5-7 /// NADSYN1 (11734609_at) / Fold change /veh KRTAP5-7 /// NADSYN1 (11734609_at) / RFU RASL12 (11751679_a_at) / Fold change /veh RASL12 (11751679_a_at) / RFU CDKN2B (11736163_a_at) / Fold change /veh CDKN2B (11736163_a_at) / RFU PRF1 (11729649_at) / Fold change /veh PRF1 (11729649_at) / RFU, ZNF638 /// ZNF638-IT1 / Fold change vs veh, ZNF638 /// ZNF638-IT1 / RFU, PANK3 / Fold change vs veh, PANK3 / RFU, SH3YL1 / Fold change vs veh, SH3YL1 / RFU, ZEB2 / Fold change vs veh, ZEB2 / RFU, NRIP1 / Fold change vs veh, NRIP1 / RFU, PTTG1IP / Fold change vs veh, PTTG1IP / RFU, CAPN2 / Fold change vs veh, CAPN2 / RFU, MED14 / Fold change vs veh, MED14 / RFU, SNORA58 / Fold change vs veh, SNORA58 / RFU, C1orf63 / Fold change vs veh, C1orf63 / RFU, LRRFIP1 / Fold change vs veh, LRRFIP1 / RFU, NDUFAF7 / Fold change vs veh, NDUFAF7 / RFU, SLC12A2 / Fold change vs veh, SLC12A2 / RFU, IBTK / Fold change vs veh, IBTK / RFU, ESF1 / Fold change vs veh, ESF1 / Fold change vs veh, TMEM50B / RFU, TAOK1 / Fold change vs veh, TAOK1 / RFU, ACBD3 / Fold change vs veh, ACBD3 / RFU, TMA16 / Fold change vs veh, TMA16 / RFU, RWDD3 / Fold change vs veh, RWDD3 / RFU, BCAT1 / Fold change vs veh, BCAT1 / RFU, EDEM3 / Fold change vs veh, EDEM3 / RFU, TMEM33 / Fold change vs veh, TMEM33 / RFU, WDR75 / Fold change vs veh, WDR75 / RFU, AHCTF1 / Fold change vs veh, AHCTF1 / RFU, TFRC / Fold change vs veh, TFRC / RFU, ZDHHC17 / Fold change vs veh, ZDHHC17 / RFU, NOM1 / Fold change vs veh, NOM1 / RFU, ARL8B / Fold change vs veh, ARL8B / RFU, ZBTB11 / Fold change vs veh, ZBTB11 / RFU, TAMM41 / Fold change vs veh, TAMM41 / RFU, KIAA1704 /// LOC100996395 / Fold change vs veh, KIAA1704 /// LOC100996395 / RFU, ING1 / Fold change vs veh, ING1 / RFU, TRMT61B / Fold change vs veh, TRMT61B / RFU, FUBP3 / Fold change vs veh, FUBP3 / RFU, TP53 / Fold change vs veh, TP53 / RFU, TNKS2 / Fold change vs veh, TNKS2 / RFU, ZFP14 / Fold change vs veh, ZFP14 / RFU, ACTR2 / Fold change vs veh, ACTR2 / RFU, PPP3R1 / Fold change vs veh, PPP3R1 / RFU, PIK3R1 / Fold change vs veh, PIK3R1 / RFU, HNRNPA1 / Fold change vs veh, HNRNPA1 / RFU, RNF170 / Fold change vs veh, RNF170 / RFU, ZNF28 / Fold change vs veh, ZNF28 / RFU, RNGTT / Fold change vs veh, RNGTT / RFU, OGT / Fold change vs veh, OGT / RFU, BRD1 / Fold change vs veh, BRD1 / RFU, MARS / Fold change vs veh, MARS / RFU, ZNF655 / Fold change vs veh, ZNF655 / RFU, FAHD1 / Fold change vs veh, FAHD1 / RFU, BDP1 / Fold change vs veh, BDP1 / RFU, LRRCC1 / Fold change vs veh, LRRCC1 / RFU, ARID1A / Fold change vs veh, ARID1A / RFU, ZNF146 / Fold change vs veh, ZNF146 / RFU, ZNF330 / Fold change vs veh, ZNF330 / RFU, GPN3 / Fold change vs veh, GPN3 / RFU, C9orf123 / Fold change vs veh, C9orf123 / RFU, N4BP2L2 / Fold change vs veh, N4BP2L2 / RFU, ARFIP1 / Fold change vs veh, ARFIP1 / RFU, FAM179B / Fold change vs veh, FAM179B / RFU, BCL10 / Fold change vs veh, BCL10 / RFU, UHRF1BP1L / Fold change vs veh, UHRF1BP1L / RFU, BET1 / Fold change vs veh, BET1 / RFU, CNOT2 / Fold change vs veh, CNOT2 / RFU, ZNF268 / Fold change vs veh, ZNF268 / Fold change vs veh, ZNF507 / RFU, DGCR2 / Fold change vs veh, DGCR2 / RFU, WDSUB1 / Fold change vs veh, WDSUB1 / Fold change vs veh, HSP90B1 /// MIR3652 / RFU, ADSS / Fold change vs veh, ADSS / RFU, GK / Fold change vs veh, GK / RFU, ZNF148 / Fold change vs veh, ZNF148 / RFU, TAF9 / Fold change vs veh, TAF9 / RFU, SLC1A5 / Fold change vs veh, SLC1A5 / RFU, SLMO2 / Fold change vs veh, SLMO2 / RFU, ABCC4 / Fold change vs veh, ABCC4 / RFU, LOC101060439 /// RAP1B / Fold change vs veh, LOC101060439 /// RAP1B / RFU, RFX7 / Fold change vs veh, RFX7 / RFU, GTPBP10 / Fold change vs veh, GTPBP10 / RFU, CNEP1R1 / Fold change vs veh, CNEP1R1 / RFU, BIVM-ERCC5 /// ERCC5 / Fold change vs veh, BIVM-ERCC5 /// ERCC5 / RFU, ILF3 / Fold change vs veh, ILF3 / RFU 11762660_at / Fold change /veh 11762660_at / RFU VCAN (11757783_s_at) / Fold change /veh VCAN (11757783_s_at) / RFU DDX43 (11728927_at) / Fold change /veh DDX43 (11728927_at) / RFU KRT8 (11758188_x_at) / Fold change /veh KRT8 (11758188_x_at) / RFU NKD1 (11759106_at) / Fold change /veh NKD1 (11759106_at) / RFU SRD5A1 (11742802_a_at) / Fold change /veh SRD5A1 (11742802_a_at) / RFU TPSAB1 /// TPSB2 (11721975_s_at) / Fold change /veh TPSAB1 /// TPSB2 (11721975_s_at) / RFU GSTM3 (11746129_a_at) / Fold change /veh GSTM3 (11746129_a_at) / RFU IL23R (11737362_x_at) / Fold change /veh IL23R (11737362_x_at) / RFU TMEM51 (11727254_a_at) / Fold change /veh TMEM51 (11727254_a_at) / RFU PIWIL2 (11732686_x_at) / Fold change /veh PIWIL2 (11732686_x_at) / RFU ORM1 (11744905_x_at) / Fold change /veh ORM1 (11744905_x_at) / RFU CCDC152 (11743942_at) / Fold change /veh CCDC152 (11743942_at) / RFU ECM1 (11717891_a_at) / Fold change /veh ECM1 (11717891_a_at) / RFU IL23R (11748794_a_at) / Fold change /veh IL23R (11748794_a_at) / RFU TNFAIP8L3 (11732012_x_at) / Fold change /veh TNFAIP8L3 (11732012_x_at) / RFU MBOAT4 (11741988_at) / Fold change /veh MBOAT4 (11741988_at) / RFU 11764193_at / Fold change /veh 11764193_at / RFU TMEM53 (11763286_at) / Fold change /veh TMEM53 (11763286_at) / RFU MAGEB2 (11727129_at) / Fold change /veh MAGEB2 (11727129_at) / RFU TMEM200A (11744735_a_at) / Fold change /veh TMEM200A (11744735_a_at) / RFU CCDC152 (11751479_a_at) / Fold change /veh CCDC152 (11751479_a_at) / RFU FAM211A (11726209_a_at) / Fold change /veh FAM211A (11726209_a_at) / RFU RGS16 (11746705_a_at) / Fold change /veh RGS16 (11746705_a_at) / RFU VCAN (11755009_s_at) / Fold change /veh VCAN (11755009_s_at) / RFU RHOB (11743442_s_at) / Fold change /veh RHOB (11743442_s_at) / RFU RGS16 (11720943_a_at) / Fold change /veh RGS16 (11720943_a_at) / RFU RGS16 (11720944_at) / Fold change /veh RGS16 (11720944_at) / RFU, VPS4B / Fold change vs veh, VPS4B / RFU, CREB1 / Fold change vs veh, CREB1 / RFU, DNAJC13 / Fold change vs veh, DNAJC13 / RFU, GNAQ / Fold change vs veh, GNAQ / RFU, CDK5R1 / Fold change vs veh, CDK5R1 / RFU, ZRANB3 / Fold change vs veh, ZRANB3 / RFU, CUL4A / Fold change vs veh, CUL4A / RFU, CCNY / Fold change vs veh, CCNY / RFU, UFL1 / Fold change vs veh, UFL1 / RFU, COG3 / Fold change vs veh, COG3 / RFU, DIAPH2 / Fold change vs veh, DIAPH2 / RFU, SKA2 / Fold change vs veh, SKA2 / RFU, AFF3 / Fold change vs veh, AFF3 / RFU, LMF1 / Fold change vs veh, LMF1 / RFU, IPO11 / Fold change vs veh, IPO11 / RFU, DFFB / Fold change vs veh, DFFB / RFU, FOXP1 / Fold change vs veh, FOXP1 / RFU, CARD8 / Fold change vs veh, CARD8 / RFU, STRN3 / Fold change vs veh, STRN3 / RFU, ADK / Fold change vs veh, ADK / RFU, RASSF2 / Fold change vs veh, RASSF2 / RFU, WIPF1 / Fold change vs veh, WIPF1 / RFU, LARP1B / Fold change vs veh, LARP1B / RFU, RASA1 / Fold change vs veh, RASA1 / RFU, RB1 / Fold change vs veh, RB1 / RFU, PPFIA1 / Fold change vs veh, PPFIA1 / RFU, MAT2A / Fold change vs veh, MAT2A / RFU, CCT5 / Fold change vs veh, CCT5 / RFU, WDR92 / Fold change vs veh, WDR92 / RFU, CUX1 / Fold change vs veh, CUX1 / RFU, TTC7A / Fold change vs veh, TTC7A / RFU, TMEM135 / Fold change vs veh, TMEM135 / RFU, DEPTOR / Fold change vs veh, DEPTOR / RFU, CPM / Fold change vs veh, CPM / RFU, DNAJB6 / Fold change vs veh, DNAJB6 / RFU, CACNA2D3 / Fold change vs veh, CACNA2D3 / RFU, DTX4 / Fold change vs veh, DTX4 / RFU, TFCP2 / Fold change vs veh, TFCP2 / RFU, GMCL1 /// GMCL1P1 / Fold change vs veh, GMCL1 /// GMCL1P1 / RFU, AEBP2 / Fold change vs veh, AEBP2 / RFU, SNHG1 /// SNORD22 /// SNORD25 /// SNORD26 /// SNORD27 /// SNORD28 /// SNORD29 /// SNORD31 / Fold change vs veh, SNHG1 /// SNORD22 /// SNORD25 /// SNORD26 /// SNORD27 /// SNORD28 /// SNORD29 /// SNORD31 / Fold change (Aza/veh), C12orf56 (ProbeSet 11735607_a_at) / Fold change (ACY-1035/veh), C12orf56 (ProbeSet 11735607_a_at) / Fold change (Aza/veh), FGFR1OP (ProbeSet 11751329_s_at) / Fold change (ACY-1035/veh), FGFR1OP (ProbeSet 11751329_s_at) / Fold change (Aza/veh), VPS36 (ProbeSet 11739960_a_at) / Fold change (ACY-1035/veh), VPS36 (ProbeSet 11739960_a_at) / RFU SYPL1 (11715823_x_at) / Fold change /veh SYPL1 (11715823_x_at) / RFU IGFBP7 (11715501_s_at) / Fold change /veh IGFBP7 (11715501_s_at) / RFU REEP3 (11722064_at) / Fold change /veh REEP3 (11722064_at) / RFU IGLL1 (11728026_x_at) / Fold change /veh IGLL1 (11728026_x_at): dose or concentration left out as unconfirmed. The note with it: ProbeSet 11725100_s_at; LIST B.

Regarding `Nc1ccc(-c2cccs2)cc1NC(=O)c1ccc2c(c1)cc(C1CC1)n2CCN1CCOCC1` [ACY-1035], the “Fold change vs veh, ESF1” value worked out at 0.88.
